Experimental data from patent publication US20100184820A1, “COMBINATIONS COMPRISING STAUROSPORINES” (priority 2006, published 2010).
pEC50, pIC50: −log10 of the molar value. Where two headings read alike, the source gives them in different places.

Key:
Format in all cases: cell-based, human
HMC-1.1 cells [1] = assay: induction of apoptosis (percentage of apoptotic cells on Wright-Giemsa-stained cytospin slides)
Description: (§1) Scramble control represents a mixture of A (adenine), G (guanine), T (thymine), and C (cytosine) bases, the resulting preparation containing an equimolar mixture of oligonucleotides. […] For transfection, 800,000 cells are seeded in 75 cm^2 culture plates at 37° C. for 24 hours. Mcl-1-ASO and Mcl-1 siRNA are complexed with Lipofectin-Reagent (Invitrogen) in RPMI 1640 medium essentially as described. […] After exposure to ASO, cells are washed and cultured in RPMI 1640 medium with 10% FCS in the presence or absence of various concentrations of TK inhibitors for another 12 hours before being analyzed. siRNA-treated cells are kept in control medium for 12 hours (without TK inhibitors) before being examined for the percentage of apoptotic cells and Western blotting.
(§2) Thereafter, 1 μCi ^3H-thymidine is added to each well. Sixteen hours later, cells are harvested on filter membranes (Packard Bioscience, Meriden, Conn.) in a Filtermate 196 harvester (Packard Bioscience). Filters are then air-dried, and the bound radioactivity is measured in a β-counter (Top-Count NXT, Packard Bioscience). All experiments are performed in triplicates. Cell viability is determined by the trypan blue exclusion test. The percentage of apoptotic cells is determined on Wright-Giemsa-stained cytospin slides employing conventional cytomorphologic criteria.
(§3) METHOD: Effects of mcl-1 antisense oligonucleotides on Mcl-1 protein expression and cell viability in HMC-1.1 and HMC-1.2 cells are analyzed. […] Western Blot analysis of Mcl-1 expression is performed using an anti-Mcl-1 antibody. β-Actin served as loading control. Evaluation of non-viable (trypan blue-positive) cells is expressed as percentage of all nucleated cells. Numbers (%) of apoptotic cells. Results represent the mean±S.D. from 3 independent experiments.
(§4) METHOD: [001] Effects of mcl-1-siRNA are analyzed in neoplastic mast cells on expression of Mcl-1 protein and cell viability in HMC-1.1 cells and HMC-1.2 cells. Cells are left untransfected (Control) or are transfected with either an mcl-1-specific siRNA (mcl-1-siRNA; 200 nM) or a luciferase-specific (control)-siRNA (luc-siRNA; 200 nM) as described herein. Mcl-1 protein expression is determined by Western blotting using a polyclonal anti-Mcl -1 antibody. Equal loading is confirmed by probing for β-Actin. Cell viability is analyzed by recording the percentage (%) of apoptotic cells. Results represent the mean±S.D. from 3 independent experiments in each set of experiments.
(§5) Mcl-1 protein expression is determined by Western blotting using a polyclonal anti-Mcl-1 antibody. Equal loading is confirmed by probing for β-Actin. Cell viability is analyzed by recording the percentage (%) of apoptotic cells.

Mcl-1 protein [2] = assay: Western blot analysis of Mcl-1 protein expression in HMC-1.1 cells; conditions: for expression of the Mcl-1 protein after targeted drugs: HMC-1.1 lacking KIT D816V, PKC412 0.3-10 μM, nilotinib 10-300 nM, imatinib 30-300 nM, 2CdA up to 1,000 ng/ml
Description: (§6) Western blot analysis is performed as described previously using lysates of HMC-1 cells and a polyclonal rabbit anti-human Mcl-1 antibody (Santa Cruz Biotechnology, Santa Cruz, Calif.). In brief, cells are lysed in phosphate buffered saline (PBS) containing 1% Triton-X-100 (Sigma, St. Louis, Mo.). Proteins are separated under reducing conditions by SDS-polyacrylamide gel electrophoresis and transferred to nitrocellulose membranes (Protran, Schleicher & Schuell, Dassel, Germany) in transfer buffer. Membranes are then exposed to anti-mouse/anti-rabbit IgG (BM Chemiluminescence Western blotting Kit, Roche). […] Chemiluminescence is detected by exposure to a Biomax MS film (Kodak).
as §3, §4, §5

Mcl-1 protein [3] = assay: Western blot analysis of Mcl-1 protein expression in HMC-1.2 cells; conditions: for expression of the Mcl-1 protein after targeted drugs: HMC-1.2 exhibiting KIT D816V, PKC412 1-10 μM, 2CdA 10-100 ng/ml, nilotinib and imatinib over the dose range tested
Description: as §6, §3, §4, §5

HMC-1.2 cells [4] = assay: induction of apoptosis (percentage of apoptotic cells on Wright-Giemsa-stained cytospin slides)
Description: as §1, §2, §3, §4, §5

HMC-1.1 cells [5] = assay: 3H-thymidine incorporation assay; conditions: for cell growth / proliferation (in words): HMC-1.1
Description: (§7) The human mast cell line HMC-1 generated from leukemic cells in a patient with MCL48 are obtained (Mayo Clinic, Rochester, Minn.). […] HMC-1 cells are re-thawed from an original stock every 4 to 8 weeks and passaged weekly. As control of ‘phenotypic stability’, HMC-1 cells are periodically checked for expression of KIT and the down-modulating effect of IL-4 (100 U/ml, 48 hours).
(§8) In a separate set of experiments, HMC-1 cells are transfected with mcl-1-specific ASO before being exposed to inhibitory drugs (see below). […] After exposure to drugs or/and ASO, cells are subjected to ^3H-thymidine uptake experiments, analysis of cell viability and apoptosis, or Western blotting.
as §2, with “Sixteen hours later, cells are harvested on filter membranes (Packard Bioscience, Meriden, Conn.) in a Filtermate 196 harvester (Packard Bioscience).” left out

HMC-1.2 cells [6] = assay: 3H-thymidine incorporation assay
Description: as §7, §8
as §2, with “Sixteen hours later, cells are harvested on filter membranes (Packard Bioscience, Meriden, Conn.) in a Filtermate 196 harvester (Packard Bioscience).” left out

HMC-1.1 cells [7] = assay: combination of mcl-1 ASO and targeted drugs, combination index (CalcuSyn); conditions: drug combined with mcl-1 ASO
Description: To determine the level of significance in differences found in the evaluation of data, the paired student t-test is applied.
Results are expressed as percent of control (=scramble control) without targeted drug and represent the mean±SD of 3 independent experiments are analyzed. […] Results represent the mean±SD of 3 independent experiments. […] A combination index (CI) less than 1 indicates synergism.

[8] = Homo sapiens, incubated with drugs for 24 hours

Compound | induction of apoptosis (in words) (HMC-1.1 cells [1]; HMC-1.1) | expression of the Mcl-1 protein after targeted drugs (Mcl-1 protein [2]) | expression of the Mcl-1 protein after targeted drugs (Mcl-1 protein [3]) | EC50 (HMC-1.1 cells [1]; [8]) | EC50 (HMC-1.2 cells [4]; [8]) | pEC50 (HMC-1.1 cells [1]; [8]) | pEC50 (HMC-1.2 cells [4]; [8]) | cell growth / proliferation (in words) (HMC-1.1 cells [5]) | also measured
Cc1ccc(NC(=O)c2ccc(CN3CCN(C)CC3)cc2)cc1Nc1nccc(-c2cccnc2)n1 [Imatinib] | induce apoptosis | down-regulate expression | no significant effects | – | – | – | – | – | –
mcl-1 siRNA: double-stranded mcl-1 siRNA (AAGAAACGCGGUAAUCGGACU, SEQ ID NO:8, and AGUCCGAUUACCGCGUUUCUU, SEQ ID NO:9) (chain 1 AAGAAACGCGGUAAUCGGACU; chain 2 AGUCCGAUUACCGCGUUUCUU; listed as RNA, chemistry not given here; listed as Homo sapiens) | – | – | – | – | – | – | – | – | apoptotic cells (HMC-1.1 cells [1]; HMC-1.1, siRNA 200 nM, 12 hours): increase in apoptotic cells; apoptotic cells (HMC-1.2 cells [4]; HMC-1.2, siRNA 200 nM, 12 hours): increase in apoptotic cells; expression of the Mcl-1 protein (Mcl-1 protein [2]; HMC-1.1, siRNA 200 nM): downregulate expression; expression of the Mcl-1 protein (Mcl-1 protein [3]; HMC-1.2, siRNA 200 nM): downregulate expression
Nc1nc(Cl)nc2c1ncn2[C@H]1C[C@H](O)[C@@H](CO)O1 [2CdA, 2-chlorodeoxyadenosine] | no significant effect | – | – | > 1 µg/mL | > 1 µg/mL | – | – | – | IC50 (HMC-1.1 cells [5]; Homo sapiens, 24 hours of incubation with drug, read-out: 3H-thymidine uptake (IC50) HMC-1.1): 0.1 to 0.3 µg/mL; IC50 (HMC-1.2 cells [6]; Homo sapiens, 24 hours of incubation with drug, read-out: 3H-thymidine uptake (IC50) HMC-1.2): 0.005 to 0.02 µg/mL
Cc1cn(-c2cc(NC(=O)c3ccc(C)c(Nc4nccc(-c5cccnc5)n4)c3)cc(C(F)(F)F)c2)cn1 [nilotinib, 4-methyl-3-[[4-(3-pyridinyl)-2-pyrimidinyl]amino]-N-[5-(4-methyl-1H-imidazol-1-yl)-3-(trifluoromethyl)phenyl]benzamide] | induce apoptosis | down-regulate expression | no significant effects | – | – | 7.10 to 7.52 | < 5.00 | reduce cell growth | drug interaction with mcl-1 ASO (synergism, combination index less than 1) (HMC-1.1 cells [7]): only synergistic in HMC-1.1 cells; pIC50 (HMC-1.1 cells [5]; Homo sapiens, 24 hours of incubation with drugs or transfection with ASO, read-out: 3H-thymidine uptake (IC50) HMC-1.1): 8.00 to 8.52; pIC50 (HMC-1.2 cells [6]; Homo sapiens, 24 hours of incubation with drugs, read-out: 3H-thymidine uptake (IC50) HMC-1.2): 5.52 to 6.00
CO[C@@H]1[C@H](N(C)C(=O)c2ccccc2)C[C@H]2O[C@]1(C)n1c3ccccc3c3c4c(c5c6ccccc6n2c5c31)C(=O)NC4 [PKC412, N-[(9S,10R,11R,13R)-2,3,10,11,12,13-hexahydro-10-methoxy-9-methyl-1-oxo-9,13-epoxy-1H,9H-diindolo[1,2,3-gh:3′,2′,1′-lm]pyrrolo[3,4-j][1,7]benzodiazonin-11-yl]-N-methylbenzamide] | induce apoptosis | down-regulate expression | decreased the expression | – | – | – | – | reduce cell growth | cell growth / proliferation (in words) (HMC-1.2 cells [6]; HMC-1.2, pharmacologically relevant concentrations): counteract cell growth
